Laboratory results: US20230101768A1, “METHOD TO TREAT MANGANESE TOXICITY AND MANGANESE-INDUCED PA[…] HUMANS” (priority 2021, published 2023)

Experiments:
[1] = system: SLC30A10; type: cell-based, human; conditions: HepG2 cells
Description: (§1) Cells were treated with 0 or 250 μM manganese for 4 h, and gene expression was analyzed by qRT-PCR. For each transcript, expression without manganese treatment was normalized to 1. N=4. Data are mean±SE.
(§2) Cell culture. HepG2 cells were grown in Eagle's modified essential medium (MEM; Corning) with 10% fetal bovine serum (Atlanta Biologicals), 100 IU/ml penicillin (Corning), and 100 μg/ml streptomycin (Corning). 293T cells were maintained in Dulbecco's modified essential medium/F12 (Thermo) supplemented with 10% fetal bovine serum, penicillin (100 IU/ml), and streptomycin (100 μg/ml). Human primary hepatocytes were purchased from XenoTech (catalog #HPCH10+) and cultured according to protocols provided by the supplier.
(§3) manganese and drug treatments in cell culture. Cells were treated with indicated levels of manganese as manganeseCl2.4H2O (Fisher). Vehicle for manganese treatment was water. Prolyl hydroxylase inhibitors roxadustat (Caymen), vadadustat, and molidustat (both APE-Bio); the HIFα inhibitor LW6 (Selleckchem); the proteasomal inhibitor MG132 (Sigma); and the transcription inhibitor actinomycin D (Sigma) were dissolved in DMSO. […] Vehicle treatment for all drugs was DMSO.
(§4) Quantitative RT-PCR assays. RNA extraction from HepG2 cells and mouse tissue, reverse transcription to cDNA, and qRT-PCR analyses were performed as described by us previously (47, 50). For analyses of mouse brain samples, a part of the midbrain, including the basal ganglia, was used. Transcript levels were quantified using the ΔΔCT method with 18S (in mice) or TBP (in HepG2 cells) as the internal control, also as described by us previously (47, 50).

[2] = system: VEGF; type: cell-based, human; conditions: HepG2 cells, 250 μM manganese for 4 h; expression without manganese normalized to 1; mean±SE, N=4
Description: as §1, §2, §3, §4

[3] = system: DMT1; conditions: HepG2 cells, 250 μM manganese for 4 h; expression without manganese normalized to 1; mean±SE, N=4
Description: as §1, §2, §3, §4

[4] = system: FPN; conditions: HepG2 cells, 250 μM manganese for 4 h; expression without manganese normalized to 1; mean±SE, N=4
Description: as §1, §2, §3, §4

[5] = system: SLC39A14; conditions: HepG2 cells, 250 μM manganese for 4 h; expression without manganese normalized to 1; mean±SE, N=4
Description: as §1, §2, §3, §4

[6] = system: SLC39A8; conditions: HepG2 cells, 250 μM manganese for 4 h; expression without manganese normalized to 1; mean±SE, N=4
Description: as §1, §2, §3, §4

[7] = system: SPCA1; conditions: HepG2 cells, 250 μM manganese for 4 h; expression without manganese normalized to 1; mean±SE, N=4
Description: as §1, §2, §3, §4

[8] = system: HIF1α; type: cell-based, human
Excerpt: (§5) qRT-PCR analyses in HepG2 cells stably infected with scramble shRNAs or shRNAs targeting HIF1α, HIF2α, HIF1β/ARNT or HIF1α+HIF2α. Expression in respective scramble shRNA control cells was normalized to 1. Scramble shRNA sequence 1 was used for the HIF1α shRNA assay (single knockdown). Scramble shRNA sequence 2 was used for the other experiments, including HIF1α+HIF2α double knockdown. N=3-4. Except HIF1β/ARNT shRNAs, p<0.05 by t-test in comparison with respective scramble shRNA. […] N.S.—not significant.
(§6) ShRNA sequences targeting HIF1α, HIF2α, or HIF1β/ARNT (Table 3) were obtained from the MISSION® TRC shRNA library (Sigma) or were previously described (103). Scramble shRNA sequence 1 was from the MISSION® TRC shRNA library while scramble shRNA sequence 2 (Table 3) has been previously reported (104). These sequences were sub-cloned into the lentivirus transfer plasmid pLKO.1 vector (Addgene #8453).
(§7) Lentiviral infections. Stable cells were generated by lentivirus infection essentially as described by us previously (49, 98). Briefly, lentivirus was produced in HEK293T cells by co-transfecting transfer plasmids described above with plasmids coding for a third generation packing system that is routinely used (pRSV-Rev, pRRE, and pCMV-VSVG) (49, 98). Viral supernatants were collected 40-48 h post-transfection. […]
(§8) Quantitative RT-PCR assays.

[9] = system: HIF2α; type: cell-based, human
Excerpt: as §5, §6, §7, §8

[10] = system: SLC30A10; type: cell-based; conditions: primary human hepatocytes, 250 μM manganese for 4 h
Description: (§9) (A) and (B): qRT-PCR assays in cells treated with or without 10 μM LW6 for 1 h followed by 0 or 250 μM manganese for 4 h (A) or with or without 20 μM roxadustat or 80 μM vadadustat for 16 h (B). […] For (B), expression in the absence of drug treatment was normalized to 1. N=3. Mean±SE. *P<0.05 by t-test (A) or one-way ANOVA and Dunnett's post hoc test for the comparison between no drug and other conditions (B).
as §2, §3, §4

[11] = system: VEGF; type: cell-based; conditions: primary human hepatocytes, 250 μM manganese for 4 h
Description: as §9, §2, §3, §4

[12] = system: C57BL/6J mice; conditions: C57BL/6J mice, open field 6-15 min interval, ~30 mg manganese/kg daily in drinking water, 4 weeks
Description: (§10) To assay for the protective effect of roxadustat, animals were exposed to roxadustat or vehicle with or without manganese in drinking water from ˜4 weeks of age. Treatment lasted for 4 weeks from initiation. Roxadustat (Selleckchem) was prepared as a 50 mg/ml stock solution in DMSO, then diluted to 1 mg/ml in sterile phosphate buffered saline (PBS), and delivered by daily i.p. injection at 10 mg/kg. Vehicle was 2% DMSO in PBS. For this experiment, drinking water manganese levels were adjusted to 0.138 mg absolute manganese/ml so that animals received ˜30 mg absolute manganese/kg daily. A higher level of manganese was used because exposure was initiated after weaning, which was necessary because daily i.p. injections for roxadustat delivery were not possible in the pre-weaning period.
Open-field assays for neurobehavior assessment. Open-field analyses were performed as described in a recent publication (51).

[13] = system: C57BL/6J mice; conditions: ~30 mg manganese/kg daily in drinking water, 4 weeks
Description: as §10
Animals were euthanized using carbon dioxide and tissue dissected for qRT-PCR or ICPMS analyses as described by us previously (50).
Inductively coupled plasma mass spectrometry. Metal measurements using ICP-MS were performed exactly as described by us previously (47, 50, 51, 99).

For `O.O.O.O.[Cl][Mn][Cl]` [manganese, manganeseCl2.4H2O], the “Relative expression after manganese, SLC30A10 transcript” value ([1]; 250 μM manganese for 4 h, expression without manganese normalized to 1, mean±SE, N=4) was 2.40 ± 0.28, the “Time at which SLC30A10 levels returned to baseline” value ([1]; 250 μM manganese, time course) was no more than 24 h and the “Time to statistically significant increase of SLC30A10” value ([1]; 250 μM manganese, time course) was no more than 2 h. The “Lowest manganese level at which SLC30A10 levels were elevated” value ([1]; dose response, 4 h) was 62.5 µM, the “Relative expression after manganese, VEGF transcript” value [2] was 2.41 ± 0.29 and the “Relative expression after manganese, DMT1 transcript” value [3] was 0.92 ± 0.03. For the same compound, the “Relative expression after manganese, FPN transcript” value [4] was 0.77 ± 0.21, the “Relative expression after manganese, SLC39A14 transcript” value [5] was 0.71 ± 0.02 and the “Relative expression after manganese, SLC39A8 transcript” value [6] was 0.87 ± 0.09. For the same compound, the “Relative expression after manganese, SPCA1 transcript” value [7] was 1.00 ± 0.05, the “HIF1α mRNA levels after manganese” value [8] was “not elevated” and the “HIF2α mRNA levels after manganese” value [9] was “not elevated”. For the same compound, the “SLC30A10 expression after manganese” value [10] was “increased”, the “VEGF expression after manganese” value [11] was “increased” and the “Vertical (rearing) movement versus vehicle-treated controls, manganese-only” value [12] was “reduced”. For the same compound, the “Blood manganese after manganese treatment” value [13] was “trend towards an increase” and the “Brain manganese levels, main effect of manganese treatment” value [13] was “increasing”.
